Source: ChEMBL document CHEMBL1201862, “PubChem BioAssay data set” (2004)
Calls of active or inactive are those of the source.

Legend:
[1] = DRD fibroblast viability loss – cell-based, non-viral oncogenic, luminescence, dose response (AID 1934); type: functional; settings: Homo sapiens
BJ [2] = experiment: cells; type: functional, cell-based; settings: Homo sapiens
BJ [3] = experiment: BJ-TERT fibroblast viability loss – cell-based, RAS-independent, luminescence, dose response (AID 1933); type: functional; settings: Homo sapiens
cells [4] = experiment: cells
BJ [5] = experiment: BJ-TERT-LT-ST fibroblast viability loss – cell-based, RAS-independent, luminescence, dose response (AID 1935); type: functional; settings: Homo sapiens;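 also: BJ fibroblasts immortalized with TERT plus LT and ST oncogenes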
Vero [6] = experiment: cells; type: functional, cell-based; settings: Chlorocebus sabaeus
Vero [7] = experiment: cells; type: functional; settings: Chlorocebus sabaeus
[8] = viability of uninfected HEp-2 cells – cell-based, HTS, cytotoxicity control for RSV inhibitor project, dose response (AID 2410); type: functional; settings: human respiratory syncytial virus
Protein skinhead-1 = molecular target: T1, Protein skinhead-1 (Caenorhabditis elegans, UniProt P34707); type: functional
T1 sequence (P34707 whole entry): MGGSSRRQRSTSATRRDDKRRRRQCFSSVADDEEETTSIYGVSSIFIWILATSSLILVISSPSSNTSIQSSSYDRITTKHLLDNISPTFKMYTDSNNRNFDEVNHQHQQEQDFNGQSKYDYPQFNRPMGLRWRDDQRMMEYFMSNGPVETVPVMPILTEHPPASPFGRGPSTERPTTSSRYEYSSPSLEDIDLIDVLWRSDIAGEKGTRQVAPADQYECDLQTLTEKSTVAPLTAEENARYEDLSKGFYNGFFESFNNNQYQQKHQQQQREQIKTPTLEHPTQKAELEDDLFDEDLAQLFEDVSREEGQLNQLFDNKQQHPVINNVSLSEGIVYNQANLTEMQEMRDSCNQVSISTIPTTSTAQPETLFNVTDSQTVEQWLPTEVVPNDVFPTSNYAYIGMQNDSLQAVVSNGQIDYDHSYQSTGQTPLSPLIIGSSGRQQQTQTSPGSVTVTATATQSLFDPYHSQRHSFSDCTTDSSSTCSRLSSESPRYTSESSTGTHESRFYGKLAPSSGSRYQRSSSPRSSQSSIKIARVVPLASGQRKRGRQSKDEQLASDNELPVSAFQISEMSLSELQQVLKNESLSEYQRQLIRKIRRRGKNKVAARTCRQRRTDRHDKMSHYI

cells [9] = experiment: cells; remark: listed apart in the source
[10] = molecular target: T2, Oxysterols receptor LXR-beta (Homo sapiens, UniProt P55055); type: functional, cell-based;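 also: Cell-based luminescence dose-response assay of agonist activity at LXR, run as a confirmatory counterscreen to a daf-12 agonist screen; HEK293 cells with Gal4-LXR fusion and GAL4-driven luciferase reporter; agonist potency from rising luciferase signal of a Gal4-LXR reporter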
T2 sequence (P55055 whole entry): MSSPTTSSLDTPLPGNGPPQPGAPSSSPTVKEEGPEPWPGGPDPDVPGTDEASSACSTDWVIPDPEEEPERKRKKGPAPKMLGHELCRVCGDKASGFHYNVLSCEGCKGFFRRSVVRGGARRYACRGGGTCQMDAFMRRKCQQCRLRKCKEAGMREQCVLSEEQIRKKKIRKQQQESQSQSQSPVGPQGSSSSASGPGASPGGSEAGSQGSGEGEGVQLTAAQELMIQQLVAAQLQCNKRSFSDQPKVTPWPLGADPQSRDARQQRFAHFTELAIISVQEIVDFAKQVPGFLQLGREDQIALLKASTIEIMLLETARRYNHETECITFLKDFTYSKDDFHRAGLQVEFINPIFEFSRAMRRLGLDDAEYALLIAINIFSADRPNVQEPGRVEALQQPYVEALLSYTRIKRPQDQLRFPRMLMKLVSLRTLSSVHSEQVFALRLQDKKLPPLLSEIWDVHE

[11] = M. tuberculosis H37Rv growth inhibitors, H37Rv strain (AID 1626); type: functional
[12] = molecular target: Lysosomal acid glucosylceramidase (Homo sapiens, UniProt P04062); experiment: Dose response cell-based high throughput screening assay to identify enhancers of beta-glucosidase activity. [Related pubchem assays: 784 ]; type: functional
Lysosomal acid glucosylceramidase, sequence (P04062 whole entry): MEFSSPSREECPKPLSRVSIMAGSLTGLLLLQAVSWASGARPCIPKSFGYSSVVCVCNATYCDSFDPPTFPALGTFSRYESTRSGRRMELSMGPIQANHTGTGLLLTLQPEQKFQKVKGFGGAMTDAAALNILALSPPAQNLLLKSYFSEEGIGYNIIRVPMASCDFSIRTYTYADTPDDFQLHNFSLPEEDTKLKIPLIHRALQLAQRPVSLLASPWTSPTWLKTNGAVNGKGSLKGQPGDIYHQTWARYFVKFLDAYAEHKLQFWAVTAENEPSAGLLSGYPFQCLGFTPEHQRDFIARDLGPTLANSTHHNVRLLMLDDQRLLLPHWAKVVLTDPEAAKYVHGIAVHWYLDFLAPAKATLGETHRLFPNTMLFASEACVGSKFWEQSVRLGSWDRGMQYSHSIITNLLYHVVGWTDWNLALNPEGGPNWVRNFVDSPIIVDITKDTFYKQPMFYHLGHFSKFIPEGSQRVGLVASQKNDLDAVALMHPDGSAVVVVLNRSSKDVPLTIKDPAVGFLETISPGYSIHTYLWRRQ

H4 = experiment: Luminescence Cell-Based Dose Response HTS to Identify Activators of 5'UTR Stem-Loop Driven Prion Protein mRNA Translation in H4 Neuroglioblastoma Cells. [Related pubchem assays: 1829 (Project Summary), 1814 (Primary HTS)]; type: functional; settings: Homo sapiens
[13] = Luminescence Cell-Based Dose Response to Identify Activators of Luciferase Translation or Activity in H4-C Neuroglioblastoma Cells. [Related pubchem assays: 1829 (Project Summary), 1814 (Primary HTS)]; type: functional
[14] = HPDE-C7 pancreatic duct cell viability loss – fluorescence, HTS (AID 430); type: functional, cell-based; settings: Homo sapiens
[15] = molecular target: T3, Sentrin-specific protease 6 (Homo sapiens, UniProt Q9GZR1); type: functional;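 also: Luminescence-based dose-response confirmatory assay of SENP6 inhibition, following up an ultra-high-throughput screen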
T3 sequence (Q9GZR1 whole entry): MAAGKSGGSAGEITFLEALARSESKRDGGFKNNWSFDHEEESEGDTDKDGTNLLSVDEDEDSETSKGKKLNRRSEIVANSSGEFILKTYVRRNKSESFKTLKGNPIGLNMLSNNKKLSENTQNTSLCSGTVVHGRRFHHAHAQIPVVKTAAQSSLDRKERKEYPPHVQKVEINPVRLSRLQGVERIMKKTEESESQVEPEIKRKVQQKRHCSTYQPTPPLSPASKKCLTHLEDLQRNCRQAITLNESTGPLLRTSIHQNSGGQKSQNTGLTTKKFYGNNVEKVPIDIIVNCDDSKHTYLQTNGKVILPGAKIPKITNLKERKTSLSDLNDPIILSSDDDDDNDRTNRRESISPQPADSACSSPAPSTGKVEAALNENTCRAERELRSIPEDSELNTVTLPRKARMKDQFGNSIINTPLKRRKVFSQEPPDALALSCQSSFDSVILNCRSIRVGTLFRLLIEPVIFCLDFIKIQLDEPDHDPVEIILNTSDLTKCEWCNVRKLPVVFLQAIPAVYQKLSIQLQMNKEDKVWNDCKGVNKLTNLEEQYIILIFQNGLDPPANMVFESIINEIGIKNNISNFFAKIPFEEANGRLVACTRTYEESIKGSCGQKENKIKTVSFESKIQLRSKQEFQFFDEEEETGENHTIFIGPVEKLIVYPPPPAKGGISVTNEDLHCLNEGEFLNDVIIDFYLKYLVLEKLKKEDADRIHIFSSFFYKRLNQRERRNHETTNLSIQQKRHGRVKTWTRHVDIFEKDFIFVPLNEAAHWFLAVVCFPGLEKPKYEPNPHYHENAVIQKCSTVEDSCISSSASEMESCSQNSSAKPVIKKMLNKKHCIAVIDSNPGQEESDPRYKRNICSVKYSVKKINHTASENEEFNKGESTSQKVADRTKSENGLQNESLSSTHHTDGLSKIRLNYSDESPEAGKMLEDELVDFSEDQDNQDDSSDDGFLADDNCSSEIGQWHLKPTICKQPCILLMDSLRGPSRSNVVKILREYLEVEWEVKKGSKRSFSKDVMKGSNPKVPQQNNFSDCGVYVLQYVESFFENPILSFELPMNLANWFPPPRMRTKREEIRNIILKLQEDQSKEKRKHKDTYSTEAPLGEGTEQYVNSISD

[16] = Luminescence Cell-Based Dose Confirmation to Identify Activators of 5'UTR Stem-Loop Driven Alpha-Synuclein mRNA Translation in H4 Neuroglioblastoma Cells. [Related pubchem assays: 1829 (Project Summary), 1814 (Primary HTS)]; type: functional
[17] = viability loss of HPDE-C7K cells – cell-based, fluorescence, HTS, primary screen (AID 431); type: functional; settings: Homo sapiens
[18] = Luminescence Cell-Based Dose Response to Identify Activators of 5'UTR Stem-Loop Driven Prion Protein mRNA Translation in H4-C Neuroglioblastoma Cells. [Related pubchem assays: 1829 (Project Summary), 1814 (Primary HTS)]; type: functional
[19] = molecular target: Disintegrin and metalloproteinase domain-containing protein 17 (Homo sapiens, UniProt P78536); experiment: exosite inhibitors of ADAM17, dose response, biochemical (AID 743260)
Disintegrin and metalloproteinase domain-containing protein 17, sequence (P78536 whole entry, the tested form may be a part): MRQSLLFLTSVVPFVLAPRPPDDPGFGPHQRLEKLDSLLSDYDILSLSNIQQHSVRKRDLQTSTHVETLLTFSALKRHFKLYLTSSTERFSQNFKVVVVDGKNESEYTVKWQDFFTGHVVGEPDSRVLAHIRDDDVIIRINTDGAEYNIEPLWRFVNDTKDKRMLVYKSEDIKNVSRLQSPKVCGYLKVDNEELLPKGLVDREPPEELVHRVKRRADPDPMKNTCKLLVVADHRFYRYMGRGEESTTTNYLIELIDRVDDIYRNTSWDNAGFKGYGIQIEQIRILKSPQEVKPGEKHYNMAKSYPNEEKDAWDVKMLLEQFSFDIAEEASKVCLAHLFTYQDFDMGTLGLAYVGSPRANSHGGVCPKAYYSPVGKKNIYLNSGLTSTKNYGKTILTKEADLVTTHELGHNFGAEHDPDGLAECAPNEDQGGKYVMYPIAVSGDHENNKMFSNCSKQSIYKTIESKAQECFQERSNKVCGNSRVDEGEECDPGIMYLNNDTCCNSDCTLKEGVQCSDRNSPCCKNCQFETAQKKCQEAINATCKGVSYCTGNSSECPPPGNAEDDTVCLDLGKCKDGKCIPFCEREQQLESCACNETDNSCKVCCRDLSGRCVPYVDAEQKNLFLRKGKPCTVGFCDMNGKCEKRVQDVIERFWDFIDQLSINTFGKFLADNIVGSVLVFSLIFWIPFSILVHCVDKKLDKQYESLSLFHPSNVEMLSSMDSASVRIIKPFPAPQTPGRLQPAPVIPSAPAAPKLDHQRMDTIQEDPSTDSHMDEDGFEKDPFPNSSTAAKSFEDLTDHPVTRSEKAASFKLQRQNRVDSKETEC

[20] = molecular target: T4, Sentrin-specific protease 8 (Homo sapiens, UniProt Q96LD8); type: functional;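 also: luminescence read-out of SENP8 inhibition, dose-response confirmation following an ultra-high-throughput screen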
T4 sequence (Q96LD8 whole entry): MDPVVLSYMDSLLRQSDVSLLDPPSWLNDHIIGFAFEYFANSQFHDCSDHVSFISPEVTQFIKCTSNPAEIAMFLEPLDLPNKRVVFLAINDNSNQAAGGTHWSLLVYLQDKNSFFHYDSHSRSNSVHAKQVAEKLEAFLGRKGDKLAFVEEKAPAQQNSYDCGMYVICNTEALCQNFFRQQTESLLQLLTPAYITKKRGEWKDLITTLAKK

Caspase-3 = molecular target: T5, Caspase-3 (Homo sapiens, UniProt P42574); type: functional;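 also: Dose-response selectivity test against caspase-3 for candidate inhibitors of sentrin-specific proteases (SENPs)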
T5 sequence (P42574 whole entry): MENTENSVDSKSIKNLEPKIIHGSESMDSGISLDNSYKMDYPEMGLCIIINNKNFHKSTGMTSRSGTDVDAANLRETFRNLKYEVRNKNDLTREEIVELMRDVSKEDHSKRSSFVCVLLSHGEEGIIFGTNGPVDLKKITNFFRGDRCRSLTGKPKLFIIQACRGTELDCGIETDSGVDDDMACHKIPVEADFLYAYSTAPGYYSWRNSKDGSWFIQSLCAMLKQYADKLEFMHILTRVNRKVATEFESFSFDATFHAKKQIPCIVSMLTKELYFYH

[21] = molecular target: T6, Sentrin-specific protease 7 (Homo sapiens, UniProt Q9BQF6); type: functional;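 also: Luminescence-based dose-response confirmation of ultra-high-throughput screening hits, measuring inhibition of SENP7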
T6 sequence (Q9BQF6 whole entry): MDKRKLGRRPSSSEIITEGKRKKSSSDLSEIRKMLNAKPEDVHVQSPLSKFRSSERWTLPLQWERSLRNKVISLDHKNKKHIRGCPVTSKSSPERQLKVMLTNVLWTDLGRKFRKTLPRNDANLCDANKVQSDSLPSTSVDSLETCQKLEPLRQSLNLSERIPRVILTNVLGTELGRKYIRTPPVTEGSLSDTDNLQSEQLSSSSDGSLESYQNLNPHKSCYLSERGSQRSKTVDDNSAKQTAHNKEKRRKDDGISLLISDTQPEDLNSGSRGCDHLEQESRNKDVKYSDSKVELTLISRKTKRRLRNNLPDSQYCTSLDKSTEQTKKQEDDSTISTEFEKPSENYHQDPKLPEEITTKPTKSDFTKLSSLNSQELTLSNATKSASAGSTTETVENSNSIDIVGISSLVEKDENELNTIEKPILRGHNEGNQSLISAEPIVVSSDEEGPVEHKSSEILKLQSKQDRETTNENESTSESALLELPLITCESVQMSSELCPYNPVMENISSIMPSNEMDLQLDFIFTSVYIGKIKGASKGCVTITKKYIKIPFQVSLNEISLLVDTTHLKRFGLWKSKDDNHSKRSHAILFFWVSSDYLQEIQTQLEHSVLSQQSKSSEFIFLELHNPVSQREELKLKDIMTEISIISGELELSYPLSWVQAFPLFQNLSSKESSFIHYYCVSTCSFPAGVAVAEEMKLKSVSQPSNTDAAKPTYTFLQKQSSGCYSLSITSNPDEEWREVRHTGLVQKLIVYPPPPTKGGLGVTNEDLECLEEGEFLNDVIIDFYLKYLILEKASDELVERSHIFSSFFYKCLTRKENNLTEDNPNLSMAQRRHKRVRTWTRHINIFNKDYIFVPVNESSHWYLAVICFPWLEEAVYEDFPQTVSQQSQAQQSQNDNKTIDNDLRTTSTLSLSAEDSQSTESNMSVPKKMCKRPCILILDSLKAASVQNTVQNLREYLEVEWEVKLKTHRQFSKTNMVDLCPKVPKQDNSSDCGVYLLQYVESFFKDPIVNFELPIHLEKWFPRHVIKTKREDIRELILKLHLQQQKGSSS

[22] = Luminescence Cell-Based Dose Response HTS to Identify Activators of Luciferase Translation or Activity in H4 […] Cells. [Related pubchem assays: 1829 (Project Summary), 1814 (Primary HTS)]; type: functional
[23] = NIH3T3 cell viability loss – ATP luminescence, mouse fibroblasts, counter-screen, dose response (AID 2010); type: functional, cell-based;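 also: cells exposed to compound for about 90 hours before reading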
[24] = Trypanosoma cruzi growth suppression in host cells – NIH3T3 host cells, beta-gal luminescence, confirmation (AID 2044); type: functional, cell-based;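 also: intracellular parasites grown in NIH/3T3 mouse fibroblasts as host cells; luminescent beta-galactosidase reporter signal from transgenic T. cruzi replicating inside host cells; inhibitors lower the luminescence signal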

## COc1cc(NC(=S)NC(=O)c2ccc(C(C)(C)C)cc2)ccc1NC(=O)c1cccs1
[1]
  EC50: 72.6 µM (active)
BJ [2]
  EC50: 32.9 µM (inconclusive)
BJ [3]
  EC50: 60.4 µM (active)
Cells [4]
  IC50: 8.44 µM (active)
BJ [5]
  EC50: > 150 µM (inconclusive)
Vero [6]
  IC50: 2.5 µM (active)
Vero [7]
  CC50: > 25 µM (active)
[8]
  CC50: 18.9 µM (active)

## Cc1ccc(N/C=C(/C(=O)c2ccco2)C(=O)C(F)(F)F)cc1Cl
Protein skinhead-1
  IC50: 27.2 µM (active)
Cells [9]
  EC50: > 67.5 µM (inactive)
[10]
  EC50: > 67.5 µM (inactive)
[11]
  IC50: > 100 µM (active)

## O=C(CCS(=O)(=O)c1cccc2nonc12)N1CCCc2ccccc21
[12]
  EC50: > 50 µM (not active)

## CC(C)(C)c1ccc(OCc2nc(-c3ccccn3)no2)c(Br)c1
H4
  EC50: < 0.1 µM (active)
[13]
  EC50: 0.91 µM (active)
[14]
  EC50: 11.5 µM (active)
[15]
  IC50: 17.6 µM (active)
[16]
  EC50: 0.114 µM (active)
[17]
  EC50: 11.9 µM (active)
[18]
  EC50: 0.683 µM (active)
[19]
  IC50: > 69.5 µM (inactive)
[20]
  IC50: 13.5 µM (active)
Caspase-3
  IC50: 33.8 µM (active)
[21]
  IC50: 5.88 µM (active)
[22]
  EC50: < 0.1 µM (active)

## Sc1nnc(Cc2ccccc2)n1Cc1ccco1
[12]
  EC50: > 50 µM (not active)

## CCOc1ccc2nc(NC(=O)CSC3=NCCS3)sc2c1
[11]
  IC50: > 100 µM (active)

## COC(=O)c1cc(NC(=O)CC2S/C(=N/c3ccccc3)N(CCc3c[nH]c4ccccc34)C2=O)cc(C(=O)OC)c1 (stereo unspecified)
Cells [4]
  IC50: 41.7 µM (active)
[23]
  EC50: > 60 µM (inconclusive)
[24]
  EC50: 1.11 µM (active)
[8]
  CC50: > 50 µM (active)
